In patent US10633419B2, “Immunomodulators” (BRISTOL-MYERS SQUIBB COMPANY, priority 2014, dated 2020):
Where two headings read alike, the source gives them in different places. Starred links: 1 amine or outer side, 2 acyl side, 3 side chain; linkers in the order of their positions; H or OH if unused. Positions of bridges follow the written chain, without caps; N, C: chain ends. Non-standard residues stand in square brackets, D forms with d. Residues, ends and D or L forms follow the SMILES beside them. Groups on a side chain read outwards from the residue. ξ: configuration not given here. *: point of attachment. X12 = O=C(O)CCCCCCCCCCCCCCCCCCC(=O)N[C@@H](CCC(=O)NCCCOCCOCCOCCCN*)C(=O)O; X4 = O=C(O)CCCCCCCCCCCCCCCCC(=O)N[C@@H](CC(=O)NCCCOCCOCCOCCCN*)C(=O)O; Trp(1-CH2COOH) = N[C@@H](Cc1cn(CC(=O)O)c2ccccc12)C(=O)O; X14 = O=C(O)CCCCCCCCCCNC(=O)CCC(=O)NCCCOCCOCCOCCCN*; X9 = O=C(O)CCCCCCCCCCCCCCCCC(=O)N[C@@H](CCN*)C(=O)O; C18 diacid = O=C(O)CCCCCCCCCCCCCCCCC(=O)*; Phe(4-F) = N[C@@H](Cc1ccc(F)cc1)C(=O)O; γGlu = O=C(O)[C@H](CCC(=O)[*:2])N[*:1]; d(cisHyp) = O=C(O)[C@H]1C[C@@H](O)CN1; βAsp = O=C(O)[C@H](CC(=O)[*:2])N[*:1]; Bta = N[C@@H](Cc1csc2ccccc12)C(=O)O; ξPro(4R-OH) = O=C(O)C1C[C@@H](O)CN1; PEG6 = NCCOCCOCCOCCOCCOCCOCCC(=O)O; Aha = [N-]=[N+]=NCC[C@H](N)C(=O)O; Palmitoyl = CCCCCCCCCCCCCCCC(=O)*; Hyp = O=C(O)[C@@H]1C[C@@H](O)CN1; dHyp = O=C(O)[C@H]1C[C@H](O)CN1; NMeNle = CCCC[C@H](NC)C(=O)O; Pip = O=C(O)[C@@H]1CCCCN1; NMeA = CN[C@@H](C)C(=O)O; Pra = C#CC[C@H](N)C(=O)O; Dab = NCC[C@H](N)C(=O)O; Dap = NC[C@H](N)C(=O)O; PEG1 = NCCOCCC(=O)O

Target: T1, PD-L1 (Homo sapiens, UniProt Q9NZQ7)
T1 construct: hPDL1(19-239)-TVMV-His; made in house; host or cells: HEK293T
T1 sequence (Q9NZQ7 with tags, fused parts or gaps): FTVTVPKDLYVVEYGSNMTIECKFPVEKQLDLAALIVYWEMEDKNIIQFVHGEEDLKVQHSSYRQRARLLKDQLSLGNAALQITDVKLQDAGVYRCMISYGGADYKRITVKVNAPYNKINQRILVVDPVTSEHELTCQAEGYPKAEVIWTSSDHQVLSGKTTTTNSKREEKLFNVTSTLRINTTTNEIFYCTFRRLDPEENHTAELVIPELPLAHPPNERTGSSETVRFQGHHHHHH
Assay: PD-1/PD-L1 Homogenous Time-Resolved Fluorescence (HTRF) binding assay (PD-1-Ig/PD-L1-His)
Conditions: inhibition of PD-1-Ig binding to PD-L1-TVMV-His, read-out: HTRF IC50
Method in brief: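 HTRF competition in dPBS with 0.1% BSA and 0.05% Tween-20: 20 nM PD-1-Ig added after 15 min compound pre-incubation with 10 nM PD-L1-His, then another 15 min. Signal (665/620 nm) after 30 min with APC anti-His (20 nM) and Eu anti-Ig (1 nM).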

Structure (SMILES)	IC50 (value given as range class)	IC50 (value given as number)
CCCC[C@H]1C(=O)N(C)[C@@H](CCCC)C(=O)N[C@@H](CC(C)C)C(=O)N[C@H](C(=O)NCC(=O)N[C@@H](CC(=O)O)C(=O)N[C@@H](CC(=O)NCCCOCCOCCOCCCNC(=O)CC[C@H](NC(=O)CCCCCCCCCCCCCCCCCCC(=O)O)C(=O)O)C(=O)O)CSCC(=O)N[C@@H](Cc2ccc(O)cc2)C(=O)N(C)[C@@H](C)C(=O)N[C@@H](CC(N)=O)C(=O)N2CCC[C@H]2C(=O)N[C@@H](CN)C(=O)N[C@@H](CC(C)C)C(=O)N2C[C@H](O)CC2C(=O)N[C@@H](Cc2c[nH]c3ccccc23)C(=O)N[C@@H](CCN)C(=O)N[C@@H](Cc2cn(CC(=O)O)c3ccccc23)C(=O)N1C (stereo partly drawn) [Example 11250] ({CH2CO}-Y[NMeA]NP[Dap]L[ξPro(4R-OH)]W[Dab][Trp(1-CH2COOH)][NMeNle][NMeNle]LCGDD(X12)-OH; thioether N-14)	0.3 to 9.9 nM	–
CCCCCCCCCCCCCCCC(=O)NCCCC[C@H](NC(=O)[C@H](CO)NC(=O)CNC(=O)[C@H](CO)NC(=O)CNC(=O)[C@@H]1CSCC(=O)N[C@@H](Cc2ccc(O)cc2)C(=O)N(C)[C@@H](C)C(=O)N[C@@H](CC(N)=O)C(=O)N2CCC[C@H]2C(=O)N[C@@H](CCN)C(=O)N[C@@H](CC(C)C)C(=O)N2C[C@H](O)C[C@H]2C(=O)N[C@@H](Cc2c[nH]c3ccccc23)C(=O)N[C@@H](CO)C(=O)N[C@@H](Cc2c[nH]c3ccccc23)C(=O)N(C)[C@@H](CCCC)C(=O)N(C)[C@@H](CCCC)C(=O)N[C@@H](CCCNC(=N)N)C(=O)N1)C(N)=O [Example 11023] ({CH2CO}-Y[NMeA]NP[Dab]L[Hyp]WSW[NMeNle][NMeNle]RCGSGSK(Palmitoyl)-NH2; thioether N-14)	100 to 1600 nM	–
CCCC[C@H]1C(=O)N(C)[C@@H](CCCC)C(=O)N[C@@H](CC(C)C)C(=O)N[C@H](C(=O)NCC(=O)N[C@@H](CC(=O)NCCOCCC(=O)NCC[C@H](NC(=O)CCCCCCCCCCCCCCCCC(=O)O)C(=O)O)C(=O)O)CSCC(=O)N[C@@H](Cc2ccc(O)cc2)C(=O)N2CCCC[C@H]2C(=O)N[C@@H](CC(N)=O)C(=O)N2CCC[C@H]2C(=O)N[C@@H](CN)C(=O)N[C@@H](CC(C)C)C(=O)N2C[C@H](O)C[C@H]2C(=O)N[C@@H](Cc2c[nH]c3ccccc23)C(=O)N[C@@H](CCN)C(=O)N[C@@H](Cc2cn(CC(=O)O)c3ccccc23)C(=O)N1C [Example 13161] ({CH2CO}-Y[Pip]NP[Dap]L[Hyp]W[Dab][Trp(1-CH2COOH)][NMeNle][NMeNle]LCG[βAsp][PEG1]-X9; thioether N-14)	0.3 to 9.9 nM	–
CCCCCCCCCCCCCC(=O)NCc1cn(CC[C@H](NC(=O)CNC(=O)[C@@H]2CSCC(=O)N[C@@H](Cc3ccc(O)cc3)C(=O)N(C)[C@@H](C)C(=O)N[C@@H](CC(N)=O)C(=O)N3CCC[C@H]3C(=O)N[C@@H](CN)C(=O)N[C@@H](CC(C)C)C(=O)N3C[C@H](O)C[C@H]3C(=O)N[C@@H](Cc3c[nH]c4ccccc34)C(=O)N[C@@H](CO)C(=O)N[C@@H](Cc3csc4ccccc34)C(=O)N(C)[C@@H](CCCC)C(=O)N(C)[C@@H](CCCC)C(=O)N[C@@H](CCCNC(=N)N)C(=O)N2)C(N)=O)nn1 [Example 13051]	10 to 99 nM	–
CCCC[C@H]1C(=O)N(C)[C@@H](CCCC)C(=O)N[C@@H](CC(C)C)C(=O)N[C@H](C(=O)NCCCOCCOCCOCCCNC(=O)CCC(=O)NCCCCCCCCCCC(=O)O)CSCC(=O)N[C@@H](Cc2ccc(O)cc2)C(=O)N(C)[C@@H](C)C(=O)N[C@@H](CC(N)=O)C(=O)N2CCC[C@H]2C(=O)N[C@@H](CO)C(=O)N[C@@H](CCC(N)=O)C(=O)N2C[C@H](O)C[C@H]2C(=O)N[C@@H](Cc2c[nH]c3ccccc23)C(=O)N[C@@H](CO)C(=O)N[C@@H](Cc2cn(CC(=O)O)c3ccccc23)C(=O)N1C [Example 11083] ({CH2CO}-Y[NMeA]NPSQ[Hyp]WS[Trp(1-CH2COOH)][NMeNle][NMeNle]LC-X14; thioether N-14)	10 to 99 nM	–
C#CC[C@H](NC(=O)CNC(=O)[C@@H]1CSCC(=O)N[C@@H](Cc2ccc(O)cc2)C(=O)N(C)[C@@H](C)C(=O)N[C@@H](CC(=O)O)C(=O)N2CCC[C@H]2C(=O)N[C@@H](Cc2c[nH]cn2)C(=O)N[C@@H](CCC(N)=O)C(=O)N2C[C@H](O)C[C@H]2C(=O)N[C@@H](Cc2c[nH]c3ccccc23)C(=O)N[C@@H](CO)C(=O)N[C@@H](Cc2c[nH]c3ccccc23)C(=O)N(C)[C@@H](CCCC)C(=O)N(C)[C@@H](CCCC)C(=O)N[C@@H](CCC(=O)O)C(=O)N1)C(N)=O [INT 1400H, ClAc-Tyr-mAla-Asp-Pro-His-Gln-Hyp-Trp-Ser-Trp-mNle-mNle-Glu-Cys-Gly-[(S)-propargylglycine]] ({CH2CO}-Y[NMeA]DPHQ[Hyp]WSW[NMeNle][NMeNle]ECG[Pra]-NH2; thioether N-14)	0.3 to 9.9 nM	–
C#CC[C@H](NC(=O)[C@@H]1CSCC(=O)N[C@@H](Cc2ccc(O)cc2)C(=O)N(C)[C@@H](C)C(=O)N[C@@H](CC(N)=O)C(=O)N2CCC[C@H]2C(=O)N[C@@H](CN)C(=O)N[C@@H](CC(C)C)C(=O)N2C[C@H](O)C[C@H]2C(=O)N[C@@H](Cc2c[nH]c3ccccc23)C(=O)N[C@@H](CCN)C(=O)N[C@@H](Cc2cn(CC(=O)O)c3ccccc23)C(=O)N(C)[C@@H](CCCC)C(=O)N(C)[C@@H](CCCC)C(=O)N[C@@H](CCC(=O)O)C(=O)N1)C(=O)O [INT130AG] ({CH2CO}-Y[NMeA]NP[Dap]L[Hyp]W[Dab][Trp(1-CH2COOH)][NMeNle][NMeNle]EC[Pra]-OH; thioether N-14)	0.3 to 9.9 nM	–
CCCC[C@H]1C(=O)N(C)[C@@H](CCCC)C(=O)N[C@@H](CC(C)C)C(=O)N[C@H](C(=O)NCCOCCOCCOCCOCCOCCOCCC(=O)O)CSCC(=O)N[C@@H](Cc2ccc(O)cc2)C(=O)N(C)[C@@H](C)C(=O)N[C@@H](CC(N)=O)C(=O)N2CCC[C@H]2C(=O)N[C@@H](Cc2cnc[nH]2)C(=O)N[C@@H](CCC(=O)O)C(=O)N2C[C@H](O)C[C@@H]2C(=O)N[C@@H](Cc2c[nH]c3ccccc23)C(=O)N[C@@H](CCN)C(=O)N[C@@H](Cc2cn(CC(=O)O)c3ccccc23)C(=O)N1C [Example 11044] ({CH2CO}-Y[NMeA]NPHE[d(cisHyp)]W[Dab][Trp(1-CH2COOH)][NMeNle][NMeNle]LC[PEG6]-OH; thioether N-14)	10 to 99 nM	–
CCCC[C@H]1C(=O)N(C)[C@@H](CCCC)C(=O)N[C@@H](CC(C)C)C(=O)N[C@H](C(=O)NCC(=O)N[C@@H](Cc2cn(CCOCCOCCOCCOCCOCCOCCOCCOCCOCCOCCOCCNC(=O)CC[C@H](NC(=O)CCCCCCCCCCCCCCCCC(=O)O)C(=O)O)nn2)C(=O)O)CSCC(=O)N[C@@H](Cc2ccc(O)cc2)C(=O)N2CCCC[C@H]2C(=O)N[C@@H](CC(N)=O)C(=O)N2CCC[C@H]2C(=O)N[C@@H](CN)C(=O)N[C@@H](CC(C)C)C(=O)N2C[C@H](O)C[C@H]2C(=O)N[C@@H](Cc2c[nH]c3ccccc23)C(=O)N[C@@H](CCN)C(=O)N[C@@H](Cc2cn(CC(=O)O)c3ccccc23)C(=O)N1C [Example 14104]	100 to 1600 nM	–
CCCC[C@H]1C(=O)N(C)[C@@H](CCCC)C(=O)N[C@@H](CC(C)C)C(=O)N[C@H](C(=O)NCC(=O)N[C@@H](CC(=O)O)C(=O)N[C@@H](CC(=O)NCCCOCCOCCOCCCNC(=O)C[C@H](NC(=O)CCCCCCCCCCCCCCCCC(=O)O)C(=O)O)C(=O)O)CSCC(=O)N[C@@H](Cc2ccc(O)cc2)C(=O)N(C)[C@@H](C)C(=O)N[C@@H](CC(N)=O)C(=O)N2CCC[C@@H]2C(=O)N[C@@H](CN)C(=O)N[C@@H](CC(C)C)C(=O)N2C[C@@H](O)C[C@@H]2C(=O)N[C@@H](Cc2c[nH]c3ccccc23)C(=O)N[C@@H](CCN)C(=O)N[C@@H](Cc2cn(CC(=O)O)c3ccccc23)C(=O)N1C [Example 11232] ({CH2CO}-Y[NMeA]N[dP][Dap]L[dHyp]W[Dab][Trp(1-CH2COOH)][NMeNle][NMeNle]LCGDD(X4)-OH; thioether N-14)	10 to 99 nM	–
CCCC[C@H]1C(=O)N(C)[C@@H](CCCC)C(=O)N[C@@H](CC(C)C)C(=O)N[C@H](C(=O)NCC(=O)N[C@@H](Cc2cn(CC[C@H](NC(=O)CCCCCCCCCCCCCCCCC(=O)O)C(=O)O)nn2)C(=O)O)CSCC(=O)N[C@@H](Cc2ccc(O)cc2)C(=O)N(C)[C@@H](C)C(=O)N[C@@H](CC(N)=O)C(=O)N2CCC[C@H]2C(=O)N[C@@H](CN)C(=O)N[C@@H](CC(C)C)C(=O)N2C[C@H](O)C[C@H]2C(=O)N[C@@H](Cc2c[nH]c3ccccc23)C(=O)N[C@@H](CCN)C(=O)N[C@@H](Cc2cn(CC(=O)O)c3ccccc23)C(=O)N1C [Example 14095]	–	14 nM
CCCC[C@H]1C(=O)N(C)[C@@H](CCCC)C(=O)N[C@@H](CCCNC(=N)N)C(=O)N[C@H](C(=O)NCC(=O)NCC(=O)N[C@@H](CCN=[N+]=[N-])C(N)=O)CSCC(=O)N[C@@H](Cc2ccc(O)cc2)C(=O)N(C)[C@@H](C)C(=O)N[C@@H](CC(N)=O)C(=O)N2CCC[C@H]2C(=O)N[C@@H](CN)C(=O)N[C@@H](CC(C)C)C(=O)N2C[C@H](O)C[C@H]2C(=O)N[C@@H](Cc2c[nH]c3ccccc23)C(=O)N[C@@H](CO)C(=O)N[C@@H](Cc2csc3ccccc23)C(=O)N1C [INT 1300C] ({CH2CO}-Y[NMeA]NP[Dap]L[Hyp]WS[Bta][NMeNle][NMeNle]RCGG[Aha]-NH2; thioether N-14)	0.3 to 9.9 nM	–
CCCC[C@H]1C(=O)N(C)[C@@H](CCCC)C(=O)N[C@@H](CC(C)C)C(=O)N[C@H](C(=O)NCC(=O)N[C@@H](CCNC(=O)CC[C@H](NC(=O)CCCCCCCCCCCCCCCCC(=O)O)C(=O)O)C(=O)O)CSCC(=O)N[C@@H](Cc2ccc(F)cc2)C(=O)N2CCCC[C@H]2C(=O)N[C@@H](CC(=O)O)C(=O)N2CCC[C@H]2C(=O)N[C@@H](CN)C(=O)N[C@@H](CC(C)C)C(=O)N2C[C@H](O)C[C@H]2C(=O)N[C@@H](Cc2c[nH]c3ccccc23)C(=O)N[C@@H](CCN)C(=O)N[C@@H](Cc2cn(CC(=O)O)c3ccccc23)C(=O)N1C [Example 13150] ({CH2CO}-[Phe(4-F)][Pip]DP[Dap]L[Hyp]W[Dab][Trp(1-CH2COOH)][NMeNle][NMeNle]LCG[Dab]([γGlu-C18 diacid])-OH; thioether N-14)	–	20.9 nM
